# Experimental data published in patent publication US8178570B2, “Tie-2 modulators and methods of use” (Exelixis, Inc., priority 2003, dated 2012).
# Biological target: Tie-2 (Homo sapiens, UniProt Q02763)
# Test: Tie-2 tyrosine kinase activity: kinase-dependent ATP consumption (pEY substrate, luciferase/luciferin chemiluminescence) or 33P-ATP incorporation into substrate
# Type: biochemical
# Conditions: Tie-2 (human enzyme) inhibition, Table 2, class symbols A-D
# Summary of the method: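 Values are IC50 categories: A below 50 nM, B above 50 to 1000 nM, C above 1000 to below 10,000 nM, D 10,000 nM or more. They were measured by 33P-ATP phosphate transfer onto a generic substrate bound to the plate (scintillation), or by luminescent luciferase detection of ATP used with pEY.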
# Sequence of Tie-2 (Q02763 23-1124): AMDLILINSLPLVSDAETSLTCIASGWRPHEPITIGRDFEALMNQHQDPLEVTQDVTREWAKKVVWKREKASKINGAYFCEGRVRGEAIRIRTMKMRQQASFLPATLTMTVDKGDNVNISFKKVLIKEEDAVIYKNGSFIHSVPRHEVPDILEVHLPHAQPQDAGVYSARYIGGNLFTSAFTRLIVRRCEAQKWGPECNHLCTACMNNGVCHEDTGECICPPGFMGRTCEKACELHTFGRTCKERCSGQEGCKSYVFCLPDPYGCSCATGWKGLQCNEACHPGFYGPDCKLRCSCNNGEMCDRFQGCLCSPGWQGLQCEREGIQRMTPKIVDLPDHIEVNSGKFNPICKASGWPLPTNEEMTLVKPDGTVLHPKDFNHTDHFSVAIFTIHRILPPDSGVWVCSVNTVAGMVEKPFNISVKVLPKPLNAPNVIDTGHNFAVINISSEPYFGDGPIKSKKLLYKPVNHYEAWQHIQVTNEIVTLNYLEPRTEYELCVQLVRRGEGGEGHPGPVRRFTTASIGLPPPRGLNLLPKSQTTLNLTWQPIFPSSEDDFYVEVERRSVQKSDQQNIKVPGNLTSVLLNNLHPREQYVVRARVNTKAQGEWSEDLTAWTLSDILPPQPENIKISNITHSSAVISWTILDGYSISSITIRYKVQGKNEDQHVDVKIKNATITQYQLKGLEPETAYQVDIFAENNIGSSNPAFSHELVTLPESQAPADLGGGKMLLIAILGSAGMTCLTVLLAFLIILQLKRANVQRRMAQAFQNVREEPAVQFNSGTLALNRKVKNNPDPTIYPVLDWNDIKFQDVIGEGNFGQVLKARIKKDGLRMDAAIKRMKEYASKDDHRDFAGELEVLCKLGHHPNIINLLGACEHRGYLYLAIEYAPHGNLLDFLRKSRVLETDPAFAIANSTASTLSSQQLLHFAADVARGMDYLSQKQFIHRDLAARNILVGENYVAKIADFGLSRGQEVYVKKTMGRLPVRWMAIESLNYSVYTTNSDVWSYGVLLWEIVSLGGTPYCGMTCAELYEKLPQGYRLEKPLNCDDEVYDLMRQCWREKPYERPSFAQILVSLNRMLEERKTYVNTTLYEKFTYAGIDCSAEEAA
row,IC50,SMILES
1,≥ 10 µM,"COc1ccc(-c2nc(-c3ccncc3)nn2CCN(C(=O)Nc2c(C)cc(C)cc2C)C2CCCC2)cc1Cl [Entry 148, N-(2-{5-[3-chloro-4-(methyloxy)phenyl]-3-pyridin-4-yl-1H-1,2,4-triazol-1-yl}ethyl)-N-cyclopentyl-N′-(2,4,6-trimethylphenyl)urea]"
2,≥ 10 µM,"COc1ccc(-c2nc(-c3ccncc3)nn2CCN(C(=O)Nc2cc(Cl)c(Cl)cc2Cl)C2CCCC2)cc1Cl [Entry 126, N-(2-{5-[3-chloro-4-(methyloxy)phenyl]-3-pyridin-4-yl-1H-1,2,4-triazol-1-yl}ethyl)-N-cyclopentyl-N′-(2,4,5-trichlorophenyl)urea]"
3,≥ 10 µM,"CCOC(=O)Cn1nc(-c2ccc(OC)c(Cl)c2)nc1-c1ccncc1 [Entry 4, ethyl {3-[3-chloro-4-(methyloxy)phenyl]-5-pyridin-4-yl-1H-1,2,4-triazol-1-yl}acetate]"
4,≥ 10 µM,"COc1ccc(-c2nc(-c3ccncc3)nn2CCN(C(=O)Nc2cccc(C(C)=O)c2)C2CCCC2)cc1Cl [Entry 95, N′-(3-acetylphenyl)-N-(2-{5-[3-chloro-4-(methyloxy)phenyl]-3-pyridin-4-yl-1H-1,2,4-triazol-1-yl}ethyl)-N-cyclopentylurea]"
5,≥ 10 µM,"COc1ccc(-c2nc(-c3ccncc3)n(CCN(C(=O)Nc3cccc4ccccc34)C3CCCC3)n2)cc1Cl [Entry 55, N-(2-{3-[3-chloro-4-(methyloxy)phenyl]-5-pyridin-4-yl-1H-1,2,4-triazol-1-yl}ethyl)-N-cyclopentyl-N′-naphthalen-1-ylurea]"
6,< 0.05 µM,"O=C(Cc1cccc2ccccc12)N(CCn1nc(-c2ccncc2)nc1-c1cc(Cl)cc(Cl)c1)C1CCCC1 [Entry 47, N-cyclopentyl-N-{2-[5-(3,5-dichlorophenyl)-3-pyridin-4-yl-1H-1,2,4-triazol-1-yl]ethyl}-2-naphthalen-1-ylacetamide]"
7,≥ 10 µM,"COc1ccc(-c2nc(-c3ccncc3)nn2CCN(C(=O)Nc2ccc(F)c(Cl)c2)C2CCCC2)cc1Cl [Entry 153, N′-(3-chloro-4-fluorophenyl)-N-(2-{5-[3-chloro-4-(methyloxy)phenyl]-3-pyridin-4-yl-1H-1,2,4-triazol-1-yl}ethyl)-N-cyclopentylurea]"
8,0.05 to 1 µM,"Cc1nc(-c2ccnc(NC3CCCNC3)c2)nn1CCN(C(=O)Cc1cccc2ccccc12)C1CCCC1 (stereo not shown) [Entry 181, N-cyclopentyl-N-(2-{5-methyl-3-[2-(piperidin-3-ylamino)pyridin-4-yl]-1H-1,2,4-triazol-1-yl}ethyl)-2-naphthalen-1-ylacetamide]"
9,≥ 10 µM,"COc1ccc(-c2nc(-c3ccncc3)nn2CCN(C(=O)Nc2ccc(C(C)C)cc2)C2CCCC2)cc1Cl [Entry 100, N-(2-{5-[3-chloro-4-(methyloxy)phenyl]-3-pyridin-4-yl-1H-1,2,4-triazol-1-yl}ethyl)-N-cyclopentyl-N′-[4-(1-methylethyl)phenyl]urea]"
10,≥ 10 µM,"COc1ccc(-c2nc(-c3ccncc3)nn2CCN(C(=O)Nc2cc(C(F)(F)F)cc(C(F)(F)F)c2)C2CCCC2)cc1Cl [Entry 93, N′-[3,5-bis(trifluoromethyl)phenyl]-N-(2-{5-[3-chloro-4-(methyloxy)phenyl]-3-pyridin-4-yl-1H-1,2,4-triazol-1-yl}ethyl)-N-cyclopentylurea]"
11,0.05 to 1 µM,"COc1ccc(-c2nc(-c3ccncc3)[nH]c2CCN(C(=O)Cc2cccc3ccccc23)C2CCCC2)cc1 [Entry 54, N-cyclopentyl-N-(2-{4-[4-(methyloxy)phenyl]-2-pyridin-4-yl-1H-imidazol-5-yl}ethyl)-2-naphthalen-1-ylacetamide]"
12,≥ 10 µM,"COc1ccc(-c2nc(-c3ccncc3)nn2CCCN(C(=O)Cc2cccc3ccccc23)C2CCCC2)cc1Cl [Entry 8, N-(3-{5-[3-chloro-4-(methyloxy)phenyl]-3-pyridin-4-yl-1H-1,2,4-triazol-1-yl}propyl)-N-cyclopentyl-2-naphthalen-1-ylacetamide]"
13,≥ 10 µM,"COc1ccc(-c2nc(-c3ccncc3)nn2CCN(C(=O)Nc2cccc(Cl)c2)C2CCCC2)cc1Cl [Entry 105, N-(2-{5-[3-chloro-4-(methyloxy)phenyl]-3-pyridin-4-yl-1H-1,2,4-triazol-1-yl}ethyl)-N′-(3-chlorophenyl)-N-cyclopentylurea]"
14,≥ 10 µM,"COc1ccc(-c2nc(-c3ccncc3)nn2CCN(C(=O)Nc2ccc(C)c(C)c2)C2CCCC2)cc1Cl [Entry 96, N-(2-{5-[3-chloro-4-(methyloxy)phenyl]-3-pyridin-4-yl-1H-1,2,4-triazol-1-yl}ethyl)-N-cyclopentyl-N′-(3,4-dimethylphenyl)urea]"
15,≥ 10 µM,"COc1ccc(-c2nc(-c3ccncc3)nn2CCN(C(=O)Nc2ccc(I)cc2)C2CCCC2)cc1Cl [Entry 146, N-(2-{5-[3-chloro-4-(methyloxy)phenyl]-3-pyridin-4-yl-1H-1,2,4-triazol-1-yl}ethyl)-N-cyclopentyl-N′-(4-iodophenyl)urea]"
16,< 0.05 µM,"COc1ccc(-c2nc(-c3ccncc3)nn2CCN(C(=O)Cc2cccc3ccccc23)C2CCCC2)cc1Cl [Entry 10, N-(2-{5-[3-chloro-4-(methyloxy)phenyl]-3-pyridin-4-yl-1H-1,2,4-triazol-1-yl}ethyl)-N-cyclopentyl-2-naphthalen-1-ylacetamide]"
17,≥ 10 µM,"COc1ccc(-c2nc(-c3ccncc3)nn2CCN(C(=O)Nc2ccc(Oc3ccccc3)cc2)C2CCCC2)cc1Cl [Entry 147, N-(2-{5-[3-chloro-4-(methyloxy)phenyl]-3-pyridin-4-yl-1H-1,2,4-triazol-1-yl}ethyl)-N-cyclopentyl-N′-[4-(phenyloxy)phenyl]urea]"
18,≥ 10 µM,"COc1ccc(-c2nc(-c3ccncc3)nn2CCN(C(=O)Nc2cc(Cl)c(OC)cc2OC)C2CCCC2)cc1Cl [Entry 140, N′-[5-chloro-2,4-bis(methyloxy)phenyl]-N-(2-{5-[3-chloro-4-(methyloxy)phenyl]-3-pyridin-4-yl-1H-1,2,4-triazol-1-yl}ethyl)-N-cyclopentylurea]"
19,< 0.05 µM,"COc1ccc(-c2nc(-c3ccncc3)nn2CCN(C(=O)Cc2cccc3ccccc23)C2CC2)cc1Cl [Entry 78, N-(2-{5-[3-chloro-4-(methyloxy)phenyl]-3-pyridin-4-yl-1H-1,2,4-triazol-1-yl}ethyl)-N-cyclopropyl-2-naphthalen-1-ylacetamide]"
20,≥ 10 µM,"COc1ccc(-c2nc(-c3cccnc3)n(CC(=O)NC3CCCC3)n2)cc1Cl [Entry 12, 2-{3-[3-chloro-4-(methyloxy)phenyl]-5-pyridin-3-yl-1H-1,2,4-triazol-1-yl}-N-cyclopentylacetamide]"

row,SMILES,IC50
1,"Cc1nc(-c2ccncc2)nn1CCN(CCN1CCCCC1)C(=O)Cc1cccc2ccccc12 [Entry 178, N-[2-(5-methyl-3-pyridin-4-yl-1H-1,2,4-triazol-1-yl)ethyl]-2-naphthalen-1-yl-N-(2-piperidin-1-ylethyl)acetamide]",≥ 10 µM
2,"Cc1nc(-c2ccncc2)nn1CCN(CCN1CCOCC1)C(=O)Cc1cccc2ccccc12 [Entry 160, N-[2-(5-methyl-3-pyridin-4-yl-1H-1,2,4-triazol-1-yl)ethyl]-N-(2-morpholin-4-ylethyl)-2-naphthalen-1-ylacetamide]",≥ 10 µM
